Our source for the T/C values is PubChem BioAssay AID192 (DTP/NCI, 2004).

This assay has as its system BDF1 mice, B16 melanoma ip, median survival T/C. In words: NCI In Vivo Anticancer Drug Screen. Data for tumor model B16 Melanoma (intraperitoneal) in B6D2F1 (BDF1) mice. The note with it: endpoint: median survival time, higher = longer survival. Summed up:
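Survival or tumor size is measured after treatment of tumor-bearing mice and normalised to the vehicle-treated control group.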

Setting [1] is: dose: 100.0 mg/kg/injection, schedule: Q01DX009 (ip), vehicle: Klucel (hydroxypropylcellulose) (HPC).
Setting [2] is: dose: 200.0 mg/kg/injection, schedule: Q01DX009 (ip), vehicle: Klucel (hydroxypropylcellulose) (HPC).
[3] abbreviates: dose: 400.0 mg/kg/injection, schedule: Q01DX009 (ip), vehicle: Klucel (hydroxypropylcellulose) (HPC).
Setting [4] is: dose: 3.12 mg/kg/injection, schedule: Q01DX009 (ip), vehicle: saline with Tween-80.
The mark [5] stands for this setting: dose: 6.25 mg/kg/injection, schedule: Q01DX009 (ip), vehicle: saline with Tween-80.
Where [6] appears, read: dose: 25.0 mg/kg/injection, schedule: Q01DX009 (ip), vehicle: saline with Tween-80.

Molecules are shown by their SMILES. Values joined by “and” are separate entries in the source; they are usually repeats but may differ in a detail not shown here. Identical values can stand only once. Toxic doses and inconclusive results are not listed. Square brackets hold non-standard residues; d marks the D form. Peptide text beside a SMILES is read from it. * marks the point of attachment. ξ: configuration not given here. Cbz = O=C(OCc1ccccc1)*; ξK = NCCCCC(N)C(=O)O

In the case of `COC1C(O)CC(OC2CC(Oc3cc4cc5c(c(O)c4c(O)c3C)C(=O)[C@@H](OC3CC(OC4CC(OC6CC(C)(O)C(OC(C)=O)C(C)O6)C(O)C(C)O4)C(O)C(C)O3)[C@H]([C@H](OC)C(=O)[C@@H](O)[C@@H](C)O)C5)OC(C)C2OC(C)=O)OC1C` (some centres undefined), the T/C was 111 % of control (dose: 0.01 mg/kg/injection, schedule: Q01DX009 (ip), vehicle: Klucel (hydroxypropylcellulose) (HPC)); 111 % of control (dose: 0.02 mg/kg/injection, schedule: Q01DX009 (ip), vehicle: Klucel (hydroxypropylcellulose) (HPC)); 167 % of control (dose: 0.02 mg/kg/injection, schedule: Q01DX009 (ip), vehicle: saline); 152 % of control (dose: 0.03 mg/kg/injection, schedule: Q01DX009 (ip), vehicle: saline); 123 % of control (dose: 0.04 mg/kg/injection, schedule: Q01DX009 (ip), vehicle: Klucel (hydroxypropylcellulose) (HPC)); 175 % of control (dose: 0.04 mg/kg/injection, schedule: Q01DX009 (ip), vehicle: saline). Moreover, the T/C reads like this: (dose: 0.07 mg/kg/injection, schedule: Q01DX009 (ip), vehicle: saline) 161 % of control; (dose: 0.08 mg/kg/injection, schedule: Q01DX009 (ip), vehicle: saline) 154 % of control; (dose: 0.13 mg/kg/injection, schedule: Q01DX009 (ip), vehicle: saline) 150 % of control; (dose: 0.16 mg/kg/injection, schedule: Q01DX009 (ip), vehicle: Klucel (hydroxypropylcellulose) (HPC)) 150 % of control and 157 % of control; (dose: 0.16 mg/kg/injection, schedule: Q01DX009 (ip), vehicle: saline) 152 % of control; (dose: 0.25 mg/kg/injection, schedule: Q01DX009 (ip), vehicle: saline) 152 % of control. Further, the T/C (dose: 0.32 mg/kg/injection, schedule: Q01DX009 (ip), vehicle: saline) was 94 % of control; the T/C (dose: 3.8 micrograms/kg/injection, schedule: Q01DX009 (ip), vehicle: water) is 111 % of control; the T/C (dose: 7.5 micrograms/kg/injection, schedule: Q01DX009 (ip), vehicle: water) was 109 % of control; the T/C (dose: 15.0 micrograms/kg/injection, schedule: Q01DX009 (ip), vehicle: Klucel (hydroxypropylcellulose) (HPC)) was 109 % of control; the T/C (dose: 15.0 micrograms/kg/injection, schedule: Q01DX009 (ip), vehicle: saline) was 94 % of control; the T/C (dose: 30.0 micrograms/kg/injection, schedule: Q01DX009 (ip), vehicle: Klucel (hydroxypropylcellulose) (HPC)) was 96 % of control. Moreover, the T/C (dose: 30.0 micrograms/kg/injection, schedule: Q01DX009 (ip), vehicle: saline) was 88 % of control; the T/C (dose: 30.0 micrograms/kg/injection, schedule: Q01DX009 (ip), vehicle: water) is 159 % of control; the T/C (dose: 60.0 micrograms/kg/injection, schedule: Q01DX009 (ip), vehicle: saline) was 100 % of control; the T/C (dose: 120.0 micrograms/kg/injection, schedule: Q01DX009 (ip), vehicle: Klucel (hydroxypropylcellulose) (HPC)) is 109 % of control; the T/C (dose: 120.0 micrograms/kg/injection, schedule: Q01DX009 (ip), vehicle: saline) is 94 % of control; the T/C (dose: 240.0 micrograms/kg/injection, schedule: Q01DX009 (ip), vehicle: saline) was 100 % of control.

On to `O=C(O)c1ccc(SSc2ccc(C(=O)O)cn2)nc1`, for which the T/C by setting is: under setting [1], 88 % of control; (dose: 100.0 mg/kg/injection, schedule: Q04DX003 (ip), vehicle: Klucel (hydroxypropylcellulose) (HPC)) 93 % of control; under setting [2], 100 % of control; (dose: 200.0 mg/kg/injection, schedule: Q04DX003 (ip), vehicle: Klucel (hydroxypropylcellulose) (HPC)) 97 % of control; under setting [3], 88 % of control; (dose: 400.0 mg/kg/injection, schedule: Q04DX003 (ip), vehicle: Klucel (hydroxypropylcellulose) (HPC)) 90 % of control.

With `CCC1CC2CN(CCc3c([nH]c4ccccc34)C(C(=O)OC)(c3cc4c(cc3OC)N(C)C3C(O)(C(=O)OC)C(OC(C)=O)C5(CC)C=CCN6CCC43C65)C2)C1` (centres undefined), the T/C is, setting by setting: (dose: 0.05 mg/kg/injection, schedule: Q01DX009 (ip), vehicle: Klucel (hydroxypropylcellulose) (HPC)) 111 % of control; (dose: 0.06 mg/kg/injection, schedule: Q01DX009 (ip), vehicle: water) 109 % of control and 110 % of control; (dose: 0.13 mg/kg/injection, schedule: Q01DX009 (ip), vehicle: water) 105 % of control and 114 % of control; (dose: 0.25 mg/kg/injection, schedule: Q01DX009 (ip), vehicle: water) 173 % of control; (dose: 0.4 mg/kg/injection, schedule: Q01DX009 (ip), vehicle: Klucel (hydroxypropylcellulose) (HPC)) 192 % of control; (dose: 0.5 mg/kg/injection, schedule: Q01DX009 (ip), vehicle: water) 210 % of control. The T/C was 166 % of control (dose: 0.5 mg/kg/injection, schedule: Q04DX003 (ip), vehicle: water); 224 % of control (dose: 0.8 mg/kg/injection, schedule: Q01DX009 (ip), vehicle: Klucel (hydroxypropylcellulose) (HPC)); 151 % of control and 163 % of control and 174 % of control (dose: 1.0 mg/kg/injection, schedule: Q01DX009 (ip), vehicle: water); 206 % of control (dose: 1.0 mg/kg/injection, schedule: Q04DX003 (ip), vehicle: water); 229 % of control (dose: 1.6 mg/kg/injection, schedule: Q01DX009 (ip), vehicle: Klucel (hydroxypropylcellulose) (HPC)); 170 % of control and 178 % of control (dose: 2.0 mg/kg/injection, schedule: Q01DX009 (ip), vehicle: water). Also, the T/C (dose: 2.0 mg/kg/injection, schedule: Q04DX003 (ip), vehicle: water) is 234 % of control.

As to `Cc1ccc2c(c1)C(=O)c1ccccc1S2(=O)=O`, the T/C is 104 % of control under setting [1], 98 % of control under setting [2] and 93 % of control under setting [3].

With `COC(=O)C1C(O)C(C)C(=O)C(C)/C=C\C=C(C)C(=O)Nc2c(C)c(OC(C)=O)c3c(c2O)C(=O)C(C)=C2OCOC(=C23)C(C)=CC(C)(O)C(O)C(C)C1O` (centres undefined), the T/C was 89 % of control under setting [1] and 89 % of control under setting [2].

In the case of `Cc1cc(C)c(NC(=O)c2cccc(C(=O)Nc3c(C)cc(C)cc3C)c2)c(C)c1`, the T/C runs as follows: under setting [1], 93 % of control; under setting [2], 86 % of control; under setting [3], 90 % of control.

As for `CNC(Cc1ccccc1)c1ccc(OC)cc1` (centres undefined), the T/C reads like this: (dose: 50.0 mg/kg/injection, schedule: Q01DX009 (ip), vehicle: Klucel (hydroxypropylcellulose) (HPC)) 96 % of control; under setting [1], 96 % of control.

Consider `COc1cccc(/C=C/[N+](=O)[O-])c1OC`, for which the T/C reads like this: (dose: 35.0 mg/kg/injection, schedule: Q01DX009 (ip), vehicle: saline with Tween-80) 117 % of control; (dose: 70.0 mg/kg/injection, schedule: Q01DX009 (ip), vehicle: saline with Tween-80) 104 % of control.

For `CC1C[N-]CC(C)C1.CC1C[N-]CC(C)C1.CC1C[N-]CC(C)C1.CC1C[N-]CC(C)C1.[Cl][Rh][Cl]` (centres undefined), the T/C by setting is: (dose: 1.5 mg/kg/injection, schedule: Q01DX009 (ip), vehicle: saline with Tween-80) 91 % of control; (dose: 3.0 mg/kg/injection, schedule: Q01DX009 (ip), vehicle: saline with Tween-80) 107 % of control; (dose: 3.0 mg/kg/injection, schedule: Q01DX009 (ip), vehicle: saline) 116 % of control; (dose: 6.0 mg/kg/injection, schedule: Q01DX009 (ip), vehicle: saline with Tween-80) 93 % of control; (dose: 6.0 mg/kg/injection, schedule: Q01DX009 (ip), vehicle: saline) 116 % of control.

Regarding `Cc1ccc(C)n1-c1ccccc1C(=O)O`, the T/C runs as follows: under setting [1], 106 % of control; under setting [2], 96 % of control; under setting [3], 90 % of control.

As for `NCC(=O)NC(CCCCNC(=O)OCc1ccccc1)C(=O)O` (centres undefined) (H-Gly-[ξK](Cbz)-OH), the T/C by setting is: under setting [4], 97 % of control; under setting [5], 101 % of control.

For `OC1CCCC2CCCNC12` (centres undefined) (tested in a mixture with another compound), the T/C runs as follows: under setting [6], 90 % of control; (dose: 50.0 mg/kg/injection, schedule: Q01DX009 (ip), vehicle: saline with Tween-80) 95 % of control; (dose: 100.0 mg/kg/injection, schedule: Q01DX009 (ip), vehicle: saline with Tween-80) 86 % of control.

For `CCO/C=C1\SC(=S)N(Cc2ccccc2)C1=O`, the T/C runs as follows: under setting [4], 111 % of control; under setting [5], 123 % of control; (dose: 12.5 mg/kg/injection, schedule: Q01DX009 (ip), vehicle: Klucel (hydroxypropylcellulose) (HPC)) 92 % of control; (dose: 12.5 mg/kg/injection, schedule: Q01DX009 (ip), vehicle: saline with Tween-80) 123 % of control; (dose: 25.0 mg/kg/injection, schedule: Q01DX009 (ip), vehicle: Klucel (hydroxypropylcellulose) (HPC)) 102 % of control and 105 % of control; under setting [6], 111 % of control.
